Structures are written as SMILES.

By IC50 is commonly meant the concentration that gives 50% inhibition. A lower IC50 goes with greater potency. The term EC50 denotes the concentration that produces a half-maximal response. Low values mean higher potency in that assay, high ones lower potency in that assay.

Test [1] addresses T1, human PTGR2 (Homo sapiens (Human), UniProt Q8N8N7). Nature of the test: In vitro PTGR2 enzyme activity assay (NADPH decrease, Glo-NADPH luminescence). It is filed as biochemical. The following applies: 15-keto-PGE2 20 μM, NADPH 20 μM, pH 7.3. On the procedure:
In vitro enzyme activity was measured to determine the half maximal inhibitory concentration (IC50) of compounds of this invention as PTGR2 inhibitors. The reduction of 15-keto-PGE2 by PTGR2 requires NADPH. The decrease of NADPH during the reduction reaction indicates […] of PTGR2 and thus is used to calculate the IC50 of a PTGR2 inhibitor. […] The resultant mixture was pre-incubated at room temperature for 15 minutes. After the incubation, 15-keto-PGE2 was added to a final concentration of 20 μM, together with NADPH (20 μM, final concentration) and a Glo-NADPH reagent (commercially available from Promega Corporation, Madison, Wis.).

For test [2], the target named is T1, human PTGR2. Nature of the test: Cell-based GAL4-PPAR luciferase reporter assay in HEK293T cells transfected with human PTGR2. Conditions: UASG reporter, GAL4-PPAR and human PTGR2-Tag vectors, luciferase normalized to TK-Rluc. As for the experimental part:
HEK293T cells were seeded at 1×10^5 cells/well in a 24-well plate. […] Cells were treated and harvested in two batches, one after 24 hours and another after 48 hours. The luciferase activity was measured by a Luc-Pair™ Duo-Luciferase HS Assay Kit (commercially available from Promega Corporation) and normalized to the TK-Rluc reporter signal, which was recorded and used to calculate the EC50 value of a PTGR2 inhibitor.
A general note: Reporter assays use an easily measured gene product as a stand-in for the process of interest.

T1 sequence (Q8N8N7 whole entry): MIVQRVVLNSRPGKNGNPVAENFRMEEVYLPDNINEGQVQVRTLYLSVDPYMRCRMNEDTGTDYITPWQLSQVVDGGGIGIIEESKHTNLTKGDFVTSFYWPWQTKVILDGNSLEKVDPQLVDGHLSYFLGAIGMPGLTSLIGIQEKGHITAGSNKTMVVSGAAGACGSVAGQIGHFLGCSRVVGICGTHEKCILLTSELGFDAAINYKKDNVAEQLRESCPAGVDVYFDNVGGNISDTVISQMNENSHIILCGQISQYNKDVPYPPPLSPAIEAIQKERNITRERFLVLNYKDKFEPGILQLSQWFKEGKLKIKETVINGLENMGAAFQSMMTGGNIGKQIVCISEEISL

`COc1ccccc1N1CCN(Cc2nc3[nH]c(C)c(Cc4ccc(Cl)cc4)c(=O)n3n2)CC1` [Compound 1, 6-(4-chlorobenzyl)-2-((4-(2-methoxyphenyl)piperazin-1-yl)methyl)-5-methyl-[1,2,4]triazolo[1,5-a]pyrimidin-7(4H)-one] returned an IC50 on human PTGR2 [1] of 0.2 nM. For the same molecule, the EC50 at human PTGR2 [2] worked out at 874 nM.
The matching figures for `CC(C)c1cc(=O)[nH]c(SCC(=O)N2CCN(c3nccs3)[C@@H](C)C2)n1` [Compound 2, (S)-6-isopropyl-2-((2-(3-methyl-4-(thiazol-2-yl)piperazin-1-yl)-2-oxoethyl)thio)pyrimidin-4(3H)-one]: 43 nM and 112 nM.
The matching figures for `COc1ccc(Cc2c(C)[nH]c3nc(C(C)N4CCN(c5ccccc5)CC4)nn3c2=O)c(F)c1` (centres unmarked) [Compound 5, 6-(2-fluoro-4-methoxybenzyl)-5-methyl-2-(1-(4-phenylpiperazin-1-yl)ethyl)-[1,2,4]triazolo[1,5-a]pyrimidin-7(4H)-one]: 12.6 nM and 40.5 nM.
Take `Cc1[nH]c2nc(CN3CCN(c4ccccc4)CC3)nn2c(=O)c1Cc1cccc(Cl)c1F` [Compound 6, 6-(3-chloro-2-fluorobenzyl)-5-methyl-2-((4-phenylpiperazin-1-yl)methyl)-[1,2,4]triazolo[1,5-a]pyrimidin-7(3H)-one]: inhibition against human PTGR2 [1] was half-maximal at 0.02 nM (IC50). This molecule displayed an EC50 on human PTGR2 [2] of 300 nM.
In the case of `Cc1[nH]c2nc(C(C)N3CCN(c4ccccc4)CC3)nn2c(=O)c1Cc1cc(F)c(F)cc1F` (centres unmarked) [Compound 7, 5-methyl-2-(1-(4-phenylpiperazin-1-yl)ethyl)-6-(2,4,5-trifluorobenzyl)-[1,2,4]triazolo[1,5-a]pyrimidin-7(4H)-one], at human PTGR2 [1], the midpoint of inhibition, the IC50, lay at 4.1 nM. In addition, a half-maximal response on human PTGR2 [2] (EC50) required 7 nM.
In the case of `Cc1[nH]c2nc(C(C)N3CCN(c4ccccc4)CC3)nn2c(=O)c1Cc1cccc(F)c1` (centres unmarked) [Compound 10, 6-(3-fluorobenzyl)-5-methyl-2-(1-(4-phenylpiperazin-1-yl)ethyl)-[1,2,4]triazolo[1,5-a]pyrimidin-7(4H)-one], 7.9 nM corresponded to half-maximal inhibition against human PTGR2 [1] (IC50). Also, the EC50 on human PTGR2 [2] was 77.4 nM.
Turning to `Cc1[nH]c2nc(C(C)N3CCN(c4ccccc4)CC3)nn2c(=O)c1Cc1cccc(Cl)c1` (centres unmarked) [Compound 11, 6-(3-chlorobenzyl)-5-methyl-2-(1-(4-phenylpiperazin-1-yl)ethyl)-[1,2,4]triazolo[1,5-a]pyrimidin-7(3H)-one], the IC50 on human PTGR2 [1] stood at 54.3 nM. For the same molecule, a half-maximal response on human PTGR2 [2] (EC50) required 61.4 nM.
As to `Cc1[nH]c2nc(CN3CCN(c4ccccc4)CC3)nn2c(=O)c1Cc1cccc(Cl)c1` [Compound 12, 6-(3-chlorobenzyl)-5-methyl-2-((4-phenylpiperazin-1-yl)methyl)-[1,2,4]triazolo[1,5-a]pyrimidin-7(3H)-one], the IC50 against human PTGR2 [1] amounted to 0.01 nM. At human PTGR2 [2], a half-maximal response (EC50) required 233 nM.
On to `Cc1[nH]c2nc(C(C)N3CCN(c4ccccc4)CC3)nn2c(=O)c1Cc1cccc(C(F)(F)F)c1` (centres unmarked) [Compound 13, 5-methyl-2-(1-(4-phenylpiperazin-1-yl)ethyl)-6-(3-(trifluoromethyl)benzyl)-[1,2,4]triazolo[1,5-a]pyrimidin-7(4H)-one], for which 61.9 nM corresponded to half-maximal inhibition on human PTGR2 [1] (IC50). The molecule also showed a concentration giving a half-maximal response (EC50) at human PTGR2 [2] of 19.2 nM.
On human PTGR2 [1], `COc1ccc(Cc2c(C)[nH]c3nc(C(C)N4CCN(c5ccccc5)CC4)nn3c2=O)cc1F` (centres unmarked) [Compound 15, 6-(3-fluoro-4-methoxybenzyl)-5-methyl-2-(1-(4-phenylpiperazin-1-yl)ethyl)-[1,2,4]triazolo[1,5-a]pyrimidin-7(4H)-one] registered an IC50 of 33.9 nM. Further, a half-maximal response on human PTGR2 [2] (EC50) required 64.5 nM.
As for `Cc1ccc(Cc2c(C)[nH]c3nc(C(C)N4CCN(c5ccccc5)CC4)nn3c2=O)cc1` (centres unmarked) [Compound 17, 5-methyl-6-(4-methylbenzyl)-2-(1-(4-phenylpiperazin-1-yl)ethyl)-[1,2,4]triazolo[1,5-a] pyrimidin-7(4H)-one], the IC50 at human PTGR2 [1] came to 12 nM. For the same molecule, at human PTGR2 [2], the EC50 is 104 nM.
As for `COc1ccc(Cc2c(C)[nH]c3nc(C(C)N4CCN(c5ccccc5)CC4)nn3c2=O)cc1` (centres unmarked) [Compound 18, 6-(4-methoxybenzyl)-5-methyl-2-(1-(4-phenylpiperazin-1-yl)ethyl)-[1,2,4]triazolo[1,5-a] pyrimidin-7(4H)-one], at human PTGR2 [1], the IC50 was determined as 1.7 nM. On human PTGR2 [2], this molecule registered an EC50 of 280 nM.
Take `Cc1[nH]c2nc(C(C)N3CCN(c4ccccc4)CC3)nn2c(=O)c1Cc1ccc(F)cc1` (centres unmarked) [Compound 19, 6-(4-fluorobenzyl)-5-methyl-2-(1-(4-phenylpiperazin-1-yl)ethyl)-[1,2,4]triazolo[1,5-a]pyrimidin-7(4H)-one]: the IC50 on human PTGR2 [1] was found to be 8.9 nM. This molecule also came in with an EC50 at human PTGR2 [2] of 56.9 nM.
Molecule `Cc1[nH]c2nc(C(C)N3CCN(c4ccccc4)CC3)nn2c(=O)c1Cc1ccc(Cl)cc1` (centres unmarked) [Compound 20, 6-(4-chlorobenzyl)-5-methyl-2-(1-(4-phenylpiperazin-1-yl)ethyl)-[1,2,4]triazolo[1,5-a]pyrimidin-7(4H)-one] had a half-maximal inhibitory concentration (IC50) on human PTGR2 [1] of 17.2 nM. On human PTGR2 [2], this molecule gave an EC50 of 161 nM.
Molecule `Cc1[nH]c2nc(CN3CCN(c4nccs4)CC3)nn2c(=O)c1Cc1cccc(Cl)c1` [Compound 26, 6-(3-chlorobenzyl)-5-methyl-2-((4-(thiazol-2-yl)piperazin-1-yl)methyl)-[1,2,4]triazolo[1,5-a] pyrimidin-7(3H)-one] registered an IC50 on human PTGR2 [1] of 23.5 nM. This molecule gave an EC50 at human PTGR2 [2] of 530 nM.
With `CCCc1cc(=O)[nH]c(SCC(=O)N2CCN(c3ccccc3OC)[C@@H](C)C2)n1` [Compound 28, (S)-2-((2-(4-(2-methoxyphenyl)-3-methylpiperazin-1-yl)-2-oxoethyl)thio)-6-propylpyrimidin-4(3H)-one], the concentration for half-maximal inhibition (IC50) against human PTGR2 [1] amounted to 85 nM. On human PTGR2 [2], this molecule registered an EC50 of 108 nM.
The matching figures for `COc1ccccc1N1CCN(Cc2nc3[nH]c(C)c(Cc4cccc(Cl)c4)c(=O)n3n2)CC1` [Compound 32, 6-(3-chlorobenzyl)-2-((4-(2-methoxyphenyl)piperazin-1-yl)methyl)-5-methyl-[1,2,4]triazolo[1,5-a]pyrimidin-7(3H)-one]: 0.5 nM and 174 nM.
The matching figures for `Cc1[nH]c2nc(C=C3CCN(c4ccccc4)CC3)nn2c(=O)c1Cc1cccc(Cl)c1` [Compound 34, 6-(3-chlorobenzyl)-5-methyl-2-((1-phenylpiperidin-4-ylidene)methyl)-[1,2,4]triazolo[1,5-a] pyrimidin-7(4H)-one]: 60.2 nM and 427 nM.
At human PTGR2 [1], `CCCc1cc(=O)[nH]c(SCC(=O)N2CCN(c3nccs3)CC2)n1` [Compound 46, 2-((2-oxo-2-(4-(thiazol-2-yl)piperazin-1-yl)ethyl)thio)-6-propylpyrimidin-4(3H)-one] returned an IC50 of 86.9 nM. In addition, a half-maximal effect on human PTGR2 [2] (EC50) was put at 119 nM.
The molecule `COc1ccccc1N1CCN(C(=O)CSc2nc(C(C)C)cc(=O)[nH]2)C[C@H]1C` [Compound 53, (R)-6-isopropyl-2-((2-(4-(2-methoxyphenyl)-3-methylpiperazin-1-yl)-2-oxoethyl)thio)pyrimidin-4(3H)-one] came in with a concentration for half-maximal inhibition (IC50) against human PTGR2 [1] of 52.5 nM. For the same molecule, the EC50 at human PTGR2 [2] came to 207 nM.
The matching figures for `Cc1[nH]c2nc(C(C)N3CCN(c4ccccc4)[C@H](C)C3)nn2c(=O)c1Cc1ccc(F)cc1` (stereo partly drawn) [Compound 54, 6-(4-fluorobenzyl)-5-methyl-2-(1-((R)-3-methyl-4-phenylpiperazin-1-yl)ethyl)-[1,2,4]triazolo [1,5-a]pyrimidin-7(4H)-one]: 31.8 nM and 248 nM.
Consider `CCOc1ccccc1N1CCN(C(=O)CSc2nc(C(C)C)cc(=O)[nH]2)CC1` [Compound 63, 2-((2-(4-(2-ethoxyphenyl)piperazin-1-yl)-2-oxoethyl)thio)-6-isopropylpyrimidin-4(3H)-one], for which the midpoint of inhibition on human PTGR2 [1], the IC50, lay at 81.8 nM. The molecule also had an EC50 on human PTGR2 [2] of 164 nM.

The record behind these values is patent publication US20230279008A1, “PTGR2 INHIBITORS AND THEIR USE” (National Health Research Institutes, priority 2022, published 2023).
